{"source": "patent US8197838B2", "about": "“Sustained release systems of ascorbic acid phosphate” (Advanced Technologies and Regenerative Medicine, LLC., priority 2008, dated 2012)", "key": {"[1]": {"details": "stated by material safety data sheet from an AZP manufacturer; cited from earlier work"}, "[2]": {"experiment": "AZP drying condition evaluation (weight loss on heating)", "type": "physicochemical", "details": "for Total Weight loss after 2nd Heat: cumulative; for Weight loss after 1st Heat: Trisodium Salt", "method": "The following drying conditions for 2-Phospha-L-ascorbic Acid Trisodium Salt (AZP), (>98% (HPLC), Fluka, Lot#: 1322473 52607420) were tested: 90° C./24 hrs. under vacuum, 160° C./30 minutes under dry nitrogen blanket, and 200° C./30 minutes under dry nitrogen blanket. The times tested include estimating the compounding time and time for sample collection and cooling.\n6 glass vials were pre-dried in a vacuum oven at 160° C. for 30 minutes and transferred to a glove box purged with dry nitrogen gas. AZP powder was weighed in each vial (see Table 1) in the glove box.\n(§1) The dried AZP powder vials were sealed with Parafilm and stored under dry a nitrogen blanket until evaluation. The weight loss % was cumulative over both heating conditions. The samples under RT/N2 were stored in nitrogen box. The samples were evaluated for color change of the course of the heating conditions. Color change is an indicator of AZP degradation. […] The higher temperature and shorter time could have the same drying effects on the weight loss. […] Therefore 160° C. and 30 minutes were selected as the upper limits of the drying and processing condition"}, "[3]": {"experiment": "Color change as indicator of AZP degradation", "type": "physicochemical", "method": "as §1\nFilms were prepared as follow: The platens of a compression molding instrument (Carver Laboratory Press, Model: 2696) were pre-heated to 205° C. About 3.5 grams of the composition were placed on the platens and heated for 5 minutes. Pressure was applied (about 20,000 lbs) for about 2 minutes. The heating was stopped and the platens and film were allowed to cool to RT under water cooling and continued pressure."}}, "note": "Where “and” joins values, the source holds several entries; their conditions need not be identical. Equal entries are not always repeated.", "data": [{"substance": "2-Phospha-L-ascorbic Acid Trisodium Salt [AZP]", "values": [{"measurement": "Degradation temperature of AZP", "setting": "[1]", "result": "about 260 °C"}, {"measurement": "Total Weight loss after 2nd Heat", "setting": "[2]; 1st 90° C./Vac 24 hours, 2nd 160° C./N2/air 30 min", "result": 6.25, "unit": "wt %"}, {"measurement": "Total Weight loss after 2nd Heat", "setting": "[2]; 1st 90° C./Vac 24 hours, 2nd 200° C./N2/air 30 min", "result": 6.75, "unit": "wt %"}, {"measurement": "Total Weight loss after 2nd Heat", "setting": "[2]; 1st 90° C./Vac 24 hours, 2nd RT/N2 30 min", "result": 4.41, "unit": "wt %"}, {"measurement": "Total Weight loss after 2nd Heat", "setting": "[2]; 1st RT/N2 24 hours, 2nd 160° C./N2/air 30 min", "result": 10.06, "unit": "wt %"}, {"measurement": "Total Weight loss after 2nd Heat", "setting": "[2]; 1st RT/N2 24 hours, 2nd 200° C./N2/air 30 min", "result": 8.10, "unit": "wt %"}, {"measurement": "Total Weight loss after 2nd Heat", "setting": "[2]; 1st RT/N2 24 hours, 2nd RT/N2 30 min (control)", "result": 0.25, "unit": "wt %"}, {"measurement": "Weight loss after 1st Heat", "setting": "[2]; 1st heat for 24 hours 90° C./Vac", "result": "8.09 wt % and 7.59 wt % and 6.43 wt %"}, {"measurement": "Weight loss after 1st Heat", "setting": "[2]; 1st heat for 24 hours RT/N2", "result": "1.18 wt % and 1.76 wt % and 1.00 wt %"}, {"measurement": "Moisture content of AZP as received", "setting": "[2]; as received", "result": "up to 7.5 % by weight"}, {"measurement": "Color change of AZP powder (indicator of degradation)", "setting": "[3]; sample number 6, 90° C./Vac 24 hrs then heated to 200° C.", "result": "darkest yellow color"}, {"measurement": "Color change of AZP powder (indicator of degradation)", "setting": "[3]; samples heated at 90° C./24 hrs.", "result": "very slight yellow color"}, {"measurement": "Color change of AZP powder (indicator of degradation)", "setting": "[3]; samples heated for no more than 30 minutes", "result": "retained the original white color"}, {"measurement": "Color change of AZP powder (indicator of degradation)", "setting": "[3]; samples that underwent 2 heat treatments", "result": "slightly yellow color"}]}]}
